Laboratory results reported in ChEMBL document CHEMBL1201862, “PubChem BioAssay data set” (2004).
Active and inactive are the calls of the source.

Legend:
[1] = luciferase reporter signal suppression in cells – H4 neuroglioma cells, luminescence, dose response (AID 1990); type: functional, cell-based
cells [2] = type: functional, cell-based
[3] = Luminescence Cell-Based Dose Response HTS to Identify Inhibitors of 5'UTR Stem-Loop Driven Prion Protein mRNA Translation in H4 Neuroglioblastoma Cells. [Related pubchem assays: 1827 (Project Summary), 1813 (Primary HTS)]; type: functional
[4] = alpha-synuclein stem-loop luciferase translation blockers – H4 neuroglioma cells, luminescence, confirmation (AID 1988); type: functional, cell-based
Large T antigen = Large T antigen (Simian virus 40, UniProt P03070); type: functional, Betapolyomavirus macacae;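 further: Confirmatory-stage PubChem screen for compounds that inhibit SV40 T antigen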
Sequence of Large T antigen (P03070 whole entry): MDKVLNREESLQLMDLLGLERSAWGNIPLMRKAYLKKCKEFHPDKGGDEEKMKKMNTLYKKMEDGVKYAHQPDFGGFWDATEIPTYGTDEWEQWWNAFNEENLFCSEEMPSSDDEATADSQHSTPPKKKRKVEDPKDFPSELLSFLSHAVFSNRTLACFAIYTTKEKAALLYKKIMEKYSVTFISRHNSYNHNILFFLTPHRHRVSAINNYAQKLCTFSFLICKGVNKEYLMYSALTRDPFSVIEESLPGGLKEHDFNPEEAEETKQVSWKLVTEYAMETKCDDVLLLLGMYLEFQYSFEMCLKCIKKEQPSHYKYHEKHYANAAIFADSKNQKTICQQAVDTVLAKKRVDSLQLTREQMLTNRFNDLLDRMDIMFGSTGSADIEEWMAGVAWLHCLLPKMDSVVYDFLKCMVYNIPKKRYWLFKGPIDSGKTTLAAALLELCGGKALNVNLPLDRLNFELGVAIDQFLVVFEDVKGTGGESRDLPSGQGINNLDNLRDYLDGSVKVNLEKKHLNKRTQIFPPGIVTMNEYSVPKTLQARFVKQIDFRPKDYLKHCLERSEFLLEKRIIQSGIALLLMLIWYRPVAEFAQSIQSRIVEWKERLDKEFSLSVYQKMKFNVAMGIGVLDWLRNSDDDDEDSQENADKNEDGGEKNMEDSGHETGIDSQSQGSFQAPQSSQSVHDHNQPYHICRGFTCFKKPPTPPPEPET

cells [5] = type: functional, cell-based; remark: listed apart in the source
[6] = THP-1 cell cytotoxicity, dose response, cytotoxicity control for non-replicating M. tuberculosis project (AID 489025); type: functional
[7] = Vero E6 cell cytotoxicity, dose response, cytotoxicity control for non-replicating M. tuberculosis project, secondary assay (AID 492998); type: functional, VeroE6; conditions: Vero C1008
Nonstructural protein 1 = Nonstructural protein 1 (Influenza A virus, UniProt Q194T2); type: functional, Influenza A virus (A/California/07/2009(H1N1))
Sequence of Nonstructural protein 1 (Q194T2 whole entry): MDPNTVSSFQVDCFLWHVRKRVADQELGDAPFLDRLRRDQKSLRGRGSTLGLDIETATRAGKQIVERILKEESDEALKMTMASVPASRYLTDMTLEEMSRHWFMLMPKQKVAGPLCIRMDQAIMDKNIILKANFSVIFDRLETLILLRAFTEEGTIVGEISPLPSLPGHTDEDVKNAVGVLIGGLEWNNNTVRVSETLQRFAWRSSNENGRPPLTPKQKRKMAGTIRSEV

[8] = molecular target: FAD-linked sulfhydryl oxidase ALR (Homo sapiens, UniProt P55789); experiment: ALR-catalysed DTT oxidation blockers – biochemical, H2O2 detection, luminescence, cherry-pick, dose response (AID 493248)
Sequence of FAD-linked sulfhydryl oxidase ALR (P55789 whole entry): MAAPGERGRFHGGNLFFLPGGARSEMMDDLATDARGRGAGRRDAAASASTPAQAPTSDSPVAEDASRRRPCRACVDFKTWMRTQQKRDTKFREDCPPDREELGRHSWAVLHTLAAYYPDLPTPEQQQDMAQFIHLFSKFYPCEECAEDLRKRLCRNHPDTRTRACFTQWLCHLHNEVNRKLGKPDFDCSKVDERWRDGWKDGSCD

cells [9] = type: functional
[10] = NIH-3T3 fibroblast cytotoxicity, dose response, cytotoxicity control, cell-based, fluorescence, Alamar Blue, secondary assay (AID 2327); type: functional;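 further: NIH-3T3 mouse fibroblasts cultured with fluconazole at 8 µg/mL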
[11] = system: Streptococcus sp. 'group A'; experiment: Streptococcus pyogenes SK(-)GAS viability under kanamycin – luminescence, BacTiterGlo, confirmation, counter-screen for streptokinase expression inhibitor project, dose response (AID 1900); type: functional, organism-based
[12] = fluconazole-exposed Candida albicans growth modulators – fluorescence, retest, confirmation (AID 2467); type: functional, cell-based
[13] = microbe, parasite or virus in culture; type: functional; conditions: Mycobacterium tuberculosis
Streptococcus = experiment: GAS UMAA2166 growth inhibition – luminescence, BacTiterGlo, counter-screen for streptokinase expression inhibitor project, dose response (AID 1915); type: functional, organism-based;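 further: potency for reduction of bacterial viability or growth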
[14] = molecular target: T1, Short transient receptor potential channel 4 (Mus musculus, UniProt Q9QUQ5); experiment: block of DAMGO-driven TRPC4 calcium entry – cell-based, HEK293 TRPC4/mu-opioid, Fluo-4 calcium, dose response (AID 434942); type: functional;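 further: potency of inhibitors blocking the TRPC4 calcium response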
T1 sequence (Q9QUQ5 whole entry): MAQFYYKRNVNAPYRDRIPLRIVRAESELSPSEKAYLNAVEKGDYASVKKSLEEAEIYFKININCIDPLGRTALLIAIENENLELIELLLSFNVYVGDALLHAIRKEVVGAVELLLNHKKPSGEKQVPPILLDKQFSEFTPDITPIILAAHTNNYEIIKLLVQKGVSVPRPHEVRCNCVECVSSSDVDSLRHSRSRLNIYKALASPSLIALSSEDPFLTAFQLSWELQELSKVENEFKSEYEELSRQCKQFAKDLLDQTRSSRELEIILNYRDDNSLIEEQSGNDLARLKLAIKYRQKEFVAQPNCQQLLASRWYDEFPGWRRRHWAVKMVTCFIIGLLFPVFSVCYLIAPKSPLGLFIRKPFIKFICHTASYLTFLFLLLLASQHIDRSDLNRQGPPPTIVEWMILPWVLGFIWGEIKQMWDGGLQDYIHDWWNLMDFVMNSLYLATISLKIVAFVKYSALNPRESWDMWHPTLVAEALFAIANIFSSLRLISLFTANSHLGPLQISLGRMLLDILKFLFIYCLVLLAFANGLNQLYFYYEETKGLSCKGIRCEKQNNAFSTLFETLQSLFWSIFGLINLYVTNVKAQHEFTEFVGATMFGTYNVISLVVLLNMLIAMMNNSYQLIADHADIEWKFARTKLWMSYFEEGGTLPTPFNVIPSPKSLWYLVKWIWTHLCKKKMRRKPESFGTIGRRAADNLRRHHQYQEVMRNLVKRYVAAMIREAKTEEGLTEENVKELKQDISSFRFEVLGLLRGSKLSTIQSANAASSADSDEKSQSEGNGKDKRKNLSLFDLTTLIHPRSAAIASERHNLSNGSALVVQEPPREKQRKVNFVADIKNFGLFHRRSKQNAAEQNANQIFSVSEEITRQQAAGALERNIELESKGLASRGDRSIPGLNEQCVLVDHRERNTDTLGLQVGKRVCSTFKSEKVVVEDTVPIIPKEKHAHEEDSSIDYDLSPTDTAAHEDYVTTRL

[15] = molecular target: T1, Short transient receptor potential channel 4; experiment: calcium entry via TRPC4 opening agents – cell-based, HEK293 TRPC4/mu-opioid, Fluo-4 calcium, dose response (AID 434937); type: functional
Vero [16] = experiment: cells; type: functional, cell-based; conditions: Chlorocebus sabaeus
Vero [17] = experiment: cells; type: functional; conditions: Chlorocebus sabaeus
[18] = molecular target: DNA dC->dU-editing enzyme APOBEC-3G (Homo sapiens, UniProt Q9HC16); experiment: Dose Response confirmation of small molecule APOBEC3G DNA Deaminase Inhibitors via a fluorescence-based single-stranded DNA deaminase assay. [Related pubchem assays (depositor defined):AID493012, AID493028]; type: functional
Sequence of DNA dC->dU-editing enzyme APOBEC-3G (Q9HC16 whole entry): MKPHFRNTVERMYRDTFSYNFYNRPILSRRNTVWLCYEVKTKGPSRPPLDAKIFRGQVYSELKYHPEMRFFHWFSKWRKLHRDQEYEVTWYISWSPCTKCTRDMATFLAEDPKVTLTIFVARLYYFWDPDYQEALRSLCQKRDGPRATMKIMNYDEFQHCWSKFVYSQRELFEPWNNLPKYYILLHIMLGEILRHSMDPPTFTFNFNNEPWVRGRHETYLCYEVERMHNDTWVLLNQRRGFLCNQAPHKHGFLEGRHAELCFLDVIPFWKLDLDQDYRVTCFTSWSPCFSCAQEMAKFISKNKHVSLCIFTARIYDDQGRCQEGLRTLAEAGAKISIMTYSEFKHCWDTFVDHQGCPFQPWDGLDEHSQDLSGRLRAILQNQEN

[19] = molecular target: T2, Rac GTPase-activating protein 1 (Homo sapiens, UniProt Q9H0H5); experiment: blockers of MgcRacGAP-driven Rac1 GTP hydrolysis – biochemical, ADP Hunter fluorescence, primary and confirmatory, confirmation (AID 624330); type: functional
T2 sequence (Q9H0H5 whole entry): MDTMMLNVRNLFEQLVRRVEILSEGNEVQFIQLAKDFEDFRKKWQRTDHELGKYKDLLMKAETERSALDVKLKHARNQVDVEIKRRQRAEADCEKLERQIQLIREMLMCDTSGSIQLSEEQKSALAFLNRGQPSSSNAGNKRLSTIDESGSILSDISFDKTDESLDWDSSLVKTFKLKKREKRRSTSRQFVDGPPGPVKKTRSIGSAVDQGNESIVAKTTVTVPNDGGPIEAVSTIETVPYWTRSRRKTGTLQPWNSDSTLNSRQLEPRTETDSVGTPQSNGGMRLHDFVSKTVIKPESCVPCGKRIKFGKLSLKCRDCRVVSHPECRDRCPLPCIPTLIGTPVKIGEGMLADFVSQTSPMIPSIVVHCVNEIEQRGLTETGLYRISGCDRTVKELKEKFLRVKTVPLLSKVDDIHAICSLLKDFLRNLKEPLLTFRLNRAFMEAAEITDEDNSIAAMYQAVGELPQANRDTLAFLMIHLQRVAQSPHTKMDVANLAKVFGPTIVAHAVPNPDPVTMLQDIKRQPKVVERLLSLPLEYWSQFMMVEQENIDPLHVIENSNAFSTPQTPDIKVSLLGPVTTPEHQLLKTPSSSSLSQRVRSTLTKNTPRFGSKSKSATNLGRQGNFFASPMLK

Cytochrome P450 3A4 = Cytochrome P450 3A4 (Homo sapiens, UniProt P08684); conditions: Potency;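 further: confirmatory qHTS run detecting inhibitors and substrates of CYP3A4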
Sequence of Cytochrome P450 3A4 (P08684 whole entry): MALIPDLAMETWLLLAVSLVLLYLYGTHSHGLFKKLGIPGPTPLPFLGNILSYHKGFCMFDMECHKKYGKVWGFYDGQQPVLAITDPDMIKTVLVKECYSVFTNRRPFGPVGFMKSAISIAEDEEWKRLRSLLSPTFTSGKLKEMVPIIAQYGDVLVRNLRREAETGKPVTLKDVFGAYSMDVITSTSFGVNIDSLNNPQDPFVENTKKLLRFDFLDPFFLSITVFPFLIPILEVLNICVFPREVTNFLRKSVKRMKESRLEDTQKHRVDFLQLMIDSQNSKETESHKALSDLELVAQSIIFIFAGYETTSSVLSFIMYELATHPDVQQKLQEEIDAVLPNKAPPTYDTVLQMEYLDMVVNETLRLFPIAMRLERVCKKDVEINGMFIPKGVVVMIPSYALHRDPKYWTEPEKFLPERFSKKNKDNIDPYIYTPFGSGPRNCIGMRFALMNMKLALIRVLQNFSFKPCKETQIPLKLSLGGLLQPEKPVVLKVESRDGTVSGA

Cc1ccccc1Nc1c(-c2ccccn2)nc2ccccn12
> 350 µM (not active): EC50 (cells [5])
active: EC50 [1] 11 µM | EC50 (cells [2]) 221 µM | EC50 [3] 10.4 µM | EC50 [4] 10.5 µM | IC50 (Large T antigen) < 0.39 µM | CC50 [6] 13.7 µM | CC50 [7] 3.7 µM | IC50 (Nonstructural protein 1) 14.7 µM | AC50 [8] 1.37 µM | IC50 (cells [9]) 1.75 µM

CC(C)(C)c1ccc(C(=O)NC(=S)NNC(=O)COc2ccccc2)cc1
active: EC50 [11] 0.067 µM | EC50 [12] 1.58 µM | CC50 [13] 34.1 µM | EC50 (Streptococcus) 1.76 µM | EC50 [14] 6.68 µM | EC50 [15] 5.96 µM | IC50 (Vero [16]) 23 µM | CC50 (Vero [17]) > 25 µM
inactive: EC50 [10] > 150 µM

O=S(=O)(N=S1CC=CCN1S(=O)(=O)c1ccccc1)c1ccccc1 (stereo not drawn)
active: IC50 [18] 2.32 µM | AC50 [8] 2.19 µM | IC50 [19] 105 µM

O=c1c2ccccc2[nH]c(=S)n1Cc1cccnc1
active: EC50 [14] 3.35 µM | EC50 [15] 2.66 µM

COc1cccc(Cn2c(Oc3ccccc3)nc3c2c(=O)n(C)c(=O)n3C)c1
active: EC50 [14] 7.5 µM

CN(CC(=O)NC1CCCc2ccccc21)C1CCCCC1 (stereo not drawn)
active: EC50 [14] 13.3 µM

Cn1c(N)c(C(=O)COC(=O)c2cc(C(F)(F)F)nc3ccccc23)c(=O)n(Cc2ccccc2)c1=O
inconclusive: AC50 (Cytochrome P450 3A4) 15.8 µM
